In patent publication US10703733B2, “MCL-1 inhibitors” (Gilead Sciences, Inc., priority 2018, dated 2020):
Where two headings read alike, the source gives them in different places.

Key:
[1] = target: MCL-1/Bim interaction (recombinant human MCL-1 protein, residues 171-327; biotinylated human Bim peptide, residues 51-76) (Homo sapiens (Human), UniProt Q07820); assay: MCL-1/Bim Binding AlphaLISA Assay; conditions: 0.0625 nM 6xHis-Mcl-1 (171-327), 0.0625 nM biotinylated-Bim peptide
Method: MCL-1/Bim Binding AlphaLISA Assay.
Inhibition of the MCL-1 and Bim interaction was measured in the following AlphaLISA assay.
Recombinant human MCL-1 protein (C-terminal 6×His Tagged Mcl-1 containing residues 171-327) was generated at Gilead Sciences, Inc. (Foster City, Calif.). A biotinylated peptide derived from human Bim (residues 51-76) was purchased from CPC Scientific (Sunnyvale, Calif.). (CPC 834113). AlphaLISA anti-6His-acceptor beads (AL128R), AlphaScreen Streptavidin donor beads (6760002B), and Proxiplate-384 Plus (6008289) were purchased from PerkinElmer.
The AlphaLISA assay was performed in a 384-well Proxiplate in a total volume of […]. The reaction mixture contained 0.0625 nM 6×His-Mcl-1 (171-327), 0.0625 nM biotinylated-Bim peptide, 10 μg/mL AlphaLISA anti-6×His-AlphaLISA acceptor beads, […] AlphaScreen streptavidin donor beads, and serially diluted test compounds in the binding buffer (20 mM Hepes, pH 7.5 (Teknova H1035); 150 mM NaCl (Promega V4221); 0.002% Brij 35 (Thermo Scientific 20150); 1 mM Dithiothreitol (DTT) Solution (Affymetrix 70726); 0.01% BSA (BioLabs B9000S)). 1,000×test compounds were pre-spotted onto 384-well Proxiplate (Labcyte Echo) by Echo 555 Liquid Handler (Labcyte Inc., San Jose, Calif.) followed by incubation of 5 μl Mcl-1(171-327) for 1 hour. Then 5 μL Bim (51-76) was added and incubated for 2 hours. Five μL AlphaLISA anti-6His-AlphaLISA acceptor beads were then added for 1 hour followed by addition of 5 μL AlphaScreen streptavidin donor beads for 1 hour. The reaction plates were then read on an Envision multimode reader (PerkinElmer) using AlphaScreen settings. […] Percent inhibition was calculated as shown below: % Inhibition=100%*(Well−Neg)/(Pos−Neg) Neg: negative control, DMSO Pos: positive control, no Mcl-1 protein, no biotinylated-Bim peptide

SKBR3 cells = assay: SKBR3 Cell Viability Assay (CellTiter Glo); assay type: cell-based; conditions: CellTiter Glo luminescence, read-out: MCL-1 CV SKBR3 EC50
Method: SKBR3 Cell Viability Assay Materials
SKBR3 Cells (ATCC HTB-30) were obtained from ATCC (Manassas, Va.) and cultured in McCoy 5A's medium (ATCC 30-2007)+10% fetal bovine serum (SH30071.03, HyClone, Pittsburgh, Pa.) plus 1× Penicillin-Streptomycin L-glutamine (Corning 30-009-C1, Corning, N.Y.)).
The cell viability assay was conducted in a 384-well tissue culture plate (Grenier 781086, Monroe, N.C.) in a total volume of 70 μL. Test compounds were prepared in 1,000×, serially diluted, and pre-spotted into 384-well tissue culture plate by Echo 555 Liquid Handler (Labcyte Inc., San Jose, Calif.). Seventy μl of 6,000 SKBR3 cells were dispensed into each well of the plate and incubated at 37° C. with 5% CO2 for 72 hours. At the end of incubation, 2× CellTiter Glo (CTG) reagents (1 part buffer with 2 parts substrate) (Promega, Madison, Wis.) were prepared, and the plate and the reagent were equilibrated to room temperature for 30 minutes. CTG reagent was added to each plate by Biomek FX at 20 μL/well with 5 times pipetting and mixing to induce cell lysis. Luminescence was read by Envision multimode reader (PerkinElmer). […] Percent inhibition was calculated as followed: % Inhibition=100%*(Well−Neg)/(Pos−Neg) Neg, negative control, DMSO Pos, positive control, 10 μM Puromycin

Sequence of MCL-1/Bim interaction (recombinant human MCL-1 protein, residues 171-327; biotinylated human Bim peptide, residues 51-76) (Q07820 171-327): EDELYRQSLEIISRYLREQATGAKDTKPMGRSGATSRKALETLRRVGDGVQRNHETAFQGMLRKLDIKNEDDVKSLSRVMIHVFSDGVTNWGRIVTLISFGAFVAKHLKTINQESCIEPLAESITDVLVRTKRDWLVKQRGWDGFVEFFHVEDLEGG

Row | SMILES | IC50 [1] | EC50 (SKBR3 cells; Homo sapiens, SK-BR-3, 72 h) | EC50 (SKBR3 cells; 72 hours)
1 | CO[C@H]1/C=C/CCC[S@@](=O)(NC(=O)CCc2ccc(Cl)cc2)=NC(=O)c2ccc3c(c2)N(C[C@@H]2CC[C@H]21)C[C@@]1(CCCc2cc(Cl)ccc21)CO3 [Example 90] | 0.5 nM | 4560 nM | –
2 | COc1c(C(=O)N[S@@]2(=O)=NC(=O)c3ccc4c(c3)N(C[C@@H]3CC[C@H]3[C@@H](OC)/C=C/C[C@H](C)C2)C[C@@]2(CCCc3cc(Cl)ccc32)CO4)cn2c1C[C@H](OC)C2 [Example 451] | 0.52 nM | 161 nM | –
3 | CO[C@H]1/C=C/C[C@H](C)C[S@@](=O)(NC(=O)c2cc3n(c2)CCN(S(C)(=O)=O)C3)=NC(=O)c2ccc3c(c2)N(C[C@@H]2CC[C@H]21)C[C@@]1(CCCc2cc(Cl)ccc21)CO3 [Example 455] | 0.147 nM | 146 nM | –
4 | COc1nn(C)cc1C(=O)N[S@@]1(=O)=NC(=O)c2ccc3c(c2)N(C[C@@H]2CC[C@H]2[C@@H](N2CC(OC)C2)/C=C/C[C@H](C)C1)C[C@@]1(CCCc2cc(Cl)ccc21)CO3 [Example 464] | 0.209 nM | 222 nM | –
5 | COc1nn(C)cc1C(=O)N[S@@]1(=O)=NC(=O)c2ccc3c(c2)N(C[C@@H]2CC[C@H]2[C@@H](OC(=O)CN(C)C)/C=C/C[C@H](C)C1)C[C@@]1(CCCc2cc(Cl)ccc21)CO3 [Example 301] | 0.04 nM | 41.9 nM | –
6 | CO[C@H]1/C=C/CCC[S@@](=O)(NC(=O)CC2CC2)=NC(=O)c2ccc3c(c2)N(C[C@@H]2CC[C@H]21)C[C@@]1(CCCc2cc(Cl)ccc21)CO3 [Example 21] | 0.8 nM | 1300 nM | –
7 | CO[C@H]1/C=C/CCC[S@@](=O)(NC(=O)C2CCC2)=NC(=O)c2ccc3c(c2)N(C[C@@H]2CC[C@H]21)C[C@@]1(CCCc2cc(Cl)ccc21)CO3 [Example 31] | 3.1 nM | 2590 nM | –
8 | CCC(=O)N[S@@]1(=O)=NC(=O)c2ccc3c(c2)N(C[C@@H]2CC[C@H]2[C@@H](O)/C=C/CCC1)C[C@@]1(CCCc2cc(Cl)ccc21)CO3 [Example 62] | – | – | 2430 nM
9 | CCC(=O)N[S@@]1(=O)=NC(=O)c2ccc3c(c2)N(C[C@@H]2CC[C@H]2[C@@H](OC)CCCCC1)C[C@@]1(CCCc2ccccc21)CO3 [Example 16] | – | – | 10000 nM
10 | CCNC(=O)N[S@@]1(=O)=NC(=O)c2ccc3c(c2)N(C[C@@H]2CC[C@H]2[C@@H](OC)CCCCC1)C[C@@]1(CCCc2cc(Cl)ccc21)CO3 [Example 13] | – | – | 3270 nM
11 | COC1Cc2cc(C(=O)N[S@@]3(=O)=NC(=O)c4ccc5c(c4)N(C[C@@H]4CC[C@H]4[C@@H](OC)/C=C/C[C@H](C)C3)C[C@@]3(CCCc4cc(Cl)ccc43)CO5)cn2C1 (stereo partly drawn) [Example 205] | – | – | 58.9 nM
12 | CO[C@H]1/C=C/C[C@H](C)[C@@H](C)[S@@](=O)(NC(=O)c2cnn(C3COC3)c2)=NC(=O)c2ccc3c(c2)N(C[C@@H]2CC[C@H]21)C[C@@]1(CCCc2cc(Cl)ccc21)CO3 [Example 152] | – | – | 55.7 nM
13 | CCNC(=O)N[S@@]1(=O)=NC(=O)c2ccc3c(c2)N(C[C@@H]2CC[C@H]2[C@@H](OC)CCCCC1)C[C@@]1(CCCc2cc(Cl)ccc21)CO3 [Example 14] | – | – | 356 nM
14 | CCC(=O)N[S@@]1(=O)=NC(=O)c2ccc3c(c2)N(C[C@@H]2CC[C@H]2[C@@H](OC)CCCCC1)C[C@@]1(CCCc2cc(Cl)ccc21)CO3 [Example 11] | – | – | 10000 nM

Further lines, results first:

Row | IC50 [1] | EC50 (SKBR3 cells; Homo sapiens, SK-BR-3, 72 h) | EC50 (SKBR3 cells; 72 hours) | SMILES
15 | 0.048 nM | 136 nM | – | CO[C@H]1/C=C/C[C@H](C)C[S@@](=O)(NC(=O)c2coc(C)c2)=NC(=O)c2ccc3c(c2)N(C[C@@H]2CC[C@H]21)C[C@@]1(CCCc2cc(Cl)ccc21)CO3 [Example 204]
16 | 0.103 nM | 257 nM | – | COc1nn(C)cc1C(=O)N[S@@]1(=O)=NC(=O)c2ccc3c(c2)N(C[C@@H]2CC[C@H]2[C@H](O)/C=C/C[C@H](C)[C@H]1C)C[C@@]1(CCCc2cc(Cl)ccc21)CO3 [Example 353]
17 | 0.061 nM | 86.4 nM | – | COC1CN(C(=O)N[S@@]2(=O)=NC(=O)c3ccc4c(c3)N(C[C@@H]3CC[C@H]3[C@@H](OC)/C=C/CCC2)C[C@@]2(CCCc3cc(Cl)ccc32)CO4)C1 [Example 390]
18 | 0.042 nM | 46.5 nM | – | CO[C@H]1/C=C/C[C@H](C)C[S@@](=O)(NC(=O)N2CC(C)(OC)C2)=NC(=O)c2ccc3c(c2)N(C[C@@H]2CC[C@H]21)C[C@@]1(CCCc2cc(Cl)ccc21)CO3 [Example 363]
19 | 0.178 nM | 175 nM | – | CO[C@H]1/C=C/C[C@H](C)C[S@@](=O)(NC(=O)c2cnsc2)=NC(=O)c2ccc3c(c2)N(C[C@@H]2CC[C@H]21)C[C@@]1(CCCc2cc(Cl)ccc21)CO3 [Example 411]
20 | 0.027 nM | 47.1 nM | – | CO[C@H]1/C=C/C[C@H](C)C[S@@](=O)(NC(=O)N2CC3(CCO3)C2)=NC(=O)c2ccc3c(c2)N(C[C@@H]2CC[C@H]21)C[C@@]1(CCCc2cc(Cl)ccc21)CO3 [Example 230]
21 | 0.1 nM | 176 nM | – | COc1ncc(C(=O)N[S@@]2(=O)=NC(=O)c3ccc4c(c3)N(C[C@@H]3CC[C@H]3[C@@H](OC)/C=C/C[C@H](C)C2)C[C@@]2(CCCc3cc(Cl)ccc32)CO4)c(OC)n1 [Example 271]
22 | 0.016 nM | 47.2 nM | – | CO[C@H]1/C=C/C[C@H](C)C[S@@](=O)(NC(=O)N2CC(C#N)C2)=NC(=O)c2ccc3c(c2)N(C[C@@H]2CC[C@H]21)C[C@@]1(CCCc2cc(Cl)ccc21)CO3 [Example 233]
23 | 3.2 nM | 10000 nM | – | CO[C@H]1/C=C/CCC[S@@](=O)(NC(=O)CCc2ccccc2C(F)(F)F)=NC(=O)c2ccc3c(c2)N(C[C@@H]2CC[C@H]21)C[C@@]1(CCCc2cc(Cl)ccc21)CO3 [Example 87]
24 | 0.058 nM | 37.9 nM | – | CO[C@H]1/C=C/C[C@H](C)C[S@@](=O)(NC(=O)N2CC3(C2)CC3(F)F)=NC(=O)c2ccc3c(c2)N(C[C@@H]2CC[C@H]21)C[C@@]1(CCCc2cc(Cl)ccc21)CO3 [Example 324]
25 | 0.066 nM | 168 nM | – | CO[C@H]1/C=C/C[C@H](C)C[S@@](=O)(NC(=O)N[C@H]2C[C@@](C)(O)C2)=NC(=O)c2ccc3c(c2)N(C[C@@H]2CC[C@H]21)C[C@@]1(CCCc2cc(Cl)ccc21)CO3 [Example 186]
26 | 0.134 nM | 122 nM | – | CO[C@H]1/C=C/C[C@H](C)C[S@@](=O)(NC(=O)NC2CCOCC2)=NC(=O)c2ccc3c(c2)N(C[C@@H]2CC[C@H]21)C[C@@]1(CCCc2cc(Cl)ccc21)CO3 [Example 442]
27 | – | – | 7780 nM | CCOC(=O)N[S@]1(=O)=NC(=O)c2ccc3c(c2)N(C[C@@H]2CC[C@H]2[C@@H](OC)/C=C/CCC1)C[C@@]1(CCCc2cc(Cl)ccc21)CO3 [Example 9]
28 | – | – | 10000 nM | CO[C@H]1/C=C/CCC[S@@](N)(=O)=NC(=O)c2ccc3c(c2)N(C[C@@H]2CC[C@H]21)C[C@@]1(CCCc2cc(Cl)ccc21)CO3 [Example 5]
29 | – | 233 nM | – | CO[C@H]1/C=C/C[C@H](C)C[S@@](=O)(NC(=O)C2CC(OC(F)F)C2)=NC(=O)c2ccc3c(c2)N(C[C@@H]2CC[C@H]21)C[C@@]1(CCCc2cc(Cl)ccc21)CO3 (stereo partly drawn) [Example 431]
30 | – | – | 899 nM | CCC(=O)NS1(=O)=NC(=O)c2ccc3c(c2)N(C[C@@H]2CC[C@H]2[C@@H](OC)/C=C/CCC1)C[C@@]1(CCCc2cc(Cl)ccc21)CO3 (single isomer, unassigned) [Example 4]
31 | – | – | 7800 nM | CCC(=O)N[S@]1(=O)=NC(=O)c2ccc3c(c2)N(C[C@@H]2CC[C@H]2[C@@H](OC)/C=C/CCCC1)C[C@@]1(CCCc2cc(Cl)ccc21)CO3 [Example 69]
32 | – | 5800 nM | – | CO[C@H]1/C=C/C[C@H](C)[C@@H](C)[S@@](=O)(NC(=O)C(F)(F)F)=NC(=O)c2ccc3c(c2)N(C[C@@H]2CC[C@H]21)C[C@@]1(CCCc2cc(Cl)ccc21)CO3 [Example 370]
